Assay results published in paper PMC5831597, “Alleviating the Intestinal Absorption of Rhein in Rhubarb through Herb Compatibility in Tiaowei Chengqi Tang in Caco-2 Cells” (Evidence-based Complementary and Alternative Medicine : eCAM, 2018).
In brackets after ≈: the same amount, converted by molar mass. Each block holds one molecule with its values, some of them ahead of it.

Assays:
BCRP [1] = conditions: BCRP inhibitor; cited from earlier work
P-gp = assay: Transport of rhein across the Caco-2 cell monolayer (A to B, B to A); type: in vitro ADME, human; conditions: human, Caco-2, with verapamil 50 μmol/ml, loaded onto the A side; rhein 27.3 μg/ml; verapamil 50 μmol/ml (P-gp inhibitor); read-out: ER of rhein in presence of verapamil
Protocol: (§1) For transport experiments, the cells were seeded at a density of 1 × 10^5 cells/ml on polycarbonate membranes of cell culture inserts (6.5 mm membrane diameter, 0.4 μm pore size, and 0.33 cm^2 surface area) and placed in 12-well cell culture clusters. The transepithelial electrical resistance (TEER) was assessed using a Millicell ERS-2 (Millipore, USA) to reflect the tightness of intercellular junctions. […] The transports of rhein alone, rhein in RE, PE, RPE, and TWCQT across Caco-2 monolayers were investigated. Briefly, the cell monolayers were washed 3 times with D-Hanks. After each wash, the plates were incubated in fresh D-Hanks for 30 min at 37°C. The transport experiments were conducted by adding the test solution to either the apical (A, 0.5 ml) or basolateral side (B, 1.5 ml), while the receiving chamber contained the corresponding volume of prewarmed drug-free D-Hanks. Every experiment was repeated 3 times, and the plates were incubated in an orbital shaker at 37°C. […] sequential samples (50 μl) were taken at different times (30, 60, 90, 120, and 150 min) from both sides of the cell monolayer. The same volume of D-Hanks was immediately added to replace the samples obtained. […] All inhibitors were loaded onto the A side of the monolayers. […] The concentrations of all the samples were analyzed by UPLC-QTOF-HRMS-MS. Data in the present study were presented as mean ± standard deviation (SD). Significant analysis was performed using Statistical Package for Social Sciences (SPSS) version 16.0 (SPSS Inc., Chicago, IL, USA). Statistical significance was determined by one-way ANOVA with Dunnett's test and differences were considered significant when p < 0.05. In the Caco-2 cell model, the rate of transport was obtained from the amount transported versus time curve using linear regression. The apparent permeability (Papp) used as an expression of the absorption rate constant was calculated as follows: Papp = (dQ/dt)/(A × C0), where dQ/dt is the rate at which the compound appears in the receiver chamber (mg/s), A is the surface area of the filter membrane ([…]), and C0 is the initial concentration in the donor chamber (mg/mL). Efflux ratio (ER) was calculated from the following equation: ER = […]), where Papp(B to A) is the Papp value measured in the B to A direction and Papp(A to B) is the Papp value measured in the A to B direction.

Caco-2 cell monolayer = assay: as above; type: in vitro ADME, human
Protocol: as §1

BCRP [2] = assay: as above; type: in vitro ADME, human; conditions: human, Caco-2, with Ko143 10 μmol/ml, loaded onto the A side; rhein 27.3 μg/ml; Ko143 10 μmol/ml (BCRP inhibitor); read-out: ER of rhein in presence of Ko143
Protocol: as §1

MRP2 = assay: as above; type: in vitro ADME, human; conditions: human, Caco-2, with MK-571 50 μmol/ml, loaded onto the A side; rhein 27.3 μg/ml; MK-571 50 μmol/ml (MRP2 inhibitor); read-out: ER of rhein in presence of MK-571
Protocol: as §1

[3] = as above; type: in vitro ADME, human; conditions: human, Caco-2, PE, RPE
Protocol: as §1

[4] = tested on: human colon adenocarcinoma cells (Caco-2); design: method as in PMID 19538468; conditions: Caco-2, 0.1–10 μg/ml; cited from earlier work
[5] = MTT cytotoxicity assay on Caco-2 cells; type: cell-based; conditions: human, 48 h exposure
Protocol: Caco-2 cells were maintained in DMEM containing 10% FBS (inactivation at 56°C for 30 min), 1% NEAA, and 1% penicillin and streptomycin solution in a humidified atmosphere with 5% CO2 at 37°C. The medium was replaced every 2 days, and the cells were passaged at 80 to 90% confluence using trypsin/phosphate-buffered saline (PBS, pH 7.4). The cytotoxicity of rhein, RE, PE, RPE, and TWCQT to Caco-2 cells was evaluated by MTT assay. Briefly, 200 μl of Caco-2 cells was seeded in a 96-well plate (Coring, NY, USA) at a density of 2 × 10^4 cells/ml. Following incubation for 24 h, different concentrations of test solution were added. Thereafter, 20 μl of 5 mg/mL MTT was added, the medium was removed after 4 h, and the remaining formazan crystals were solubilized with 150 μl of dimethyl sulfoxide (DMSO). The absorbance was measured at 490 nm on a microplate reader (Thermo Scientific, Tokyo, Japan). Cells incubated without the test samples were used as controls. In each MTT assay, every sample was tested in 6 replicates.

Caco-2 cells = assay: Cellular uptake of rhein in cultured Caco-2 cell monolayers; type: in vitro ADME, human; conditions: rhein 27.3 μg/ml
Protocol: Cell monolayers were prepared as described for the transport studies. […] Cells attached to the polycarbonate membranes were cut off from the inserts, immersed in 1 ml blank D-Hanks, and sonicated for 15 min. The mixture was centrifuged at 10,000 ×g for 5 min. The concentrations of all the samples were analyzed by UPLC-QTOF-HRMS-MS.

SMILES: COc1ccc2c3c([nH]c2c1)[C@H](CC(C)C)N1C(=O)[C@H](CCC(=O)OC(C)(C)C)NC(=O)[C@@H]1C3 [Ko143]
selectivity over P-gp and MRP1 transporters (BCRP [1]): higher than 200 fold

efflux ratio at 150 min, 27.3 μg/ml (P-gp): 2.12
ER of rhein at different concentrations (Caco-2 cell monolayer; 8.61, 17.22, 34.44, 27.3, 54.6 and 109.2 μg/ml rhein): more than 1.5
amounts of rhein transported from B to A after Ko143 (Caco-2 cell monolayer; rhein 27.3 μg/ml, Ko143 10 μmol/ml, p < 0.01): significantly decreased
influence of MK-571 on Papp values of rhein from B to A (Caco-2 cell monolayer; rhein 27.3 μg/ml, MK-571 50 μmol/ml, p < 0.05): significant influences
influence of verapamil on Papp values of rhein from A to B or B to A (Caco-2 cell monolayer; rhein 27.3 μg/ml, verapamil 50 μmol/ml): no significant influence
efflux ratio at 150 min, 27.3 μg/ml (BCRP [2]): 1.27
efflux ratio at 150 min, 27.3 μg/ml (MRP2): 1.98
Papp at 150 min, 27.3 μg/ml ([3]; apical to basolateral, rhein 27.3 μg/ml, TWCQT 1 mg/ml, read-out: Papp PAB of rhein): 2.31 ± 0.13 ×10⁻⁶ cm/s
Papp at 150 min, 54.6 μg/ml ([3]; apical to basolateral, rhein 54.6 μg/ml, TWCQT 2 mg/ml, read-out: Papp PAB of rhein): 2.58 ± 0.26 ×10⁻⁶ cm/s
Papp at 150 min, 109.2 μg/ml ([3]; apical to basolateral, rhein 109.2 μg/ml, TWCQT 4 mg/ml, read-out: Papp PAB of rhein): 2.52 ± 0.19 ×10⁻⁶ cm/s
Papp B→A at 150 min, 27.3 μg/ml ([3]; basolateral to apical, rhein 27.3 μg/ml, TWCQT 1 mg/ml, read-out: Papp PBA of rhein): 6.54 ± 0.27 ×10⁻⁶ cm/s
Papp B→A at 150 min, 54.6 μg/ml ([3]; basolateral to apical, rhein 54.6 μg/ml, TWCQT 2 mg/ml, read-out: Papp PBA of rhein): 7.02 ± 0.58 ×10⁻⁶ cm/s
Papp B→A at 150 min, 109.2 μg/ml ([3]; basolateral to apical, rhein 109.2 μg/ml, TWCQT 4 mg/ml, read-out: Papp PBA of rhein): 6.72 ± 0.31 ×10⁻⁶ cm/s
efflux ratio at 150 min, 27.3 μg/ml ([3]; rhein 27.3 μg/ml, TWCQT 1 mg/ml, read-out: ER PBA/PAB of rhein): 2.83
efflux ratio at 150 min, 54.6 μg/ml ([3]; rhein 54.6 μg/ml, TWCQT 2 mg/ml, read-out: ER PBA/PAB of rhein): 2.72
efflux ratio at 150 min, 109.2 μg/ml ([3]; rhein 109.2 μg/ml, TWCQT 4 mg/ml, read-out: ER PBA/PAB of rhein): 2.38
intracellular accumulation of rhein after Ko143 (Caco-2 cells; 2 h, Ko143 10 μmol/ml): significantly increased
intracellular amounts of rhein after MK-571 (Caco-2 cells; 2 h, MK-571 50 μmol/ml): no significant changes
intracellular amounts of rhein after verapamil (Caco-2 cells; 2 h, verapamil 50 μmol/ml): no significant changes
cellular uptake of rhein (Caco-2 cells; A compartment, 2 h incubation): 0.68 ng/μg protein
SMILES: O=C(O)c1cc(O)c2c(c1)C(=O)c1cccc(O)c1C2=O [Rhein]
cytotoxic and genotoxic effects [4]: devoid of cytotoxic and genotoxic effects
IC50 at 48 h [5]: 3490 ± 960 µg/mL (≈ 12.3 mM)
